Data published in ChEMBL document CHEMBL1201862, “PubChem BioAssay data set” (2004).
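Cells were grown in 96-well plates and exposed to each compound for 48 hours at five concentrations; endpoints were interpolated linearly between bracketing concentrations, or set to the highest concentration if not reached. Here, GI50 denotes the concentration required for 50% inhibition of growth.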 Calls of active or inactive are those of the source. Cut-off read from the data, not from the text of the source: active = GI50 up to about 1.1 µM and inactive = higher.

Experiments:
Experiment in all cases: NCI anticancer screen, dose series, 48 h
[1] = tested on: 786-0
[2] = tested on: A498
[3] = tested on: A549
[4] = tested on: ACHN
[5] = tested on: CAKI-1
[6] = tested on: CCRF-CEM
[7] = tested on: COLO 205
[8] = tested on: DLD-1
[9] = tested on: DMS-114
[10] = tested on: DMS-273
[11] = tested on: EKVX
[12] = tested on: HCC 2998
[13] = tested on: HCT-116
[14] = tested on: HL-60
[15] = tested on: HOP-18
[16] = tested on: HOP-62
[17] = tested on: HOP-92
[18] = tested on: HT-29
[19] = tested on: IGROV-1
[20] = tested on: K562
[21] = tested on: KM-20L2
[22] = tested on: KM12
[23] = tested on: LOX IMVI
[24] = tested on: LXFL 529
[25] = tested on: M14
[26] = tested on: M19-MEL
[27] = tested on: MOLT-4
[28] = tested on: Malme-3M
[29] = tested on: NCI-H226
[30] = tested on: NCI-H23
[31] = tested on: NCI-H522
[32] = tested on: OVCAR-3
[33] = tested on: OVCAR-4
[34] = tested on: OVCAR-5
[35] = tested on: OVCAR-8
[36] = tested on: RXF 393
[37] = tested on: RXF 631
[38] = tested on: SF-268
[39] = tested on: SF-295
[40] = tested on: SF-539
[41] = tested on: SK-MEL-28
[42] = tested on: SK-MEL-2
[43] = tested on: SK-MEL-5
[44] = tested on: SK-OV-3
[45] = tested on: SN12C
[46] = tested on: SNB-19
[47] = tested on: SNB-75
[48] = tested on: SNB-78
[49] = tested on: SR
[50] = tested on: SW-620
[51] = tested on: TK-10
[52] = tested on: U-251
[53] = tested on: UACC-257
[54] = tested on: UACC-62
[55] = tested on: UO-31
[56] = tested on: XF498

Measured: GI50

O=C1CN=C(c2ccccc2)c2ccncc2N1
inactive: [1] > 100 µM | [2] > 100 µM | [3] > 100 µM | [4] > 100 µM | [5] > 100 µM | [6] > 100 µM | [7] > 100 µM | [8] > 100 µM | [9] > 100 µM | [10] > 100 µM | [11] > 100 µM | [12] > 100 µM | [13] > 100 µM | [14] > 100 µM | [15] > 100 µM | [16] > 100 µM | [17] > 100 µM | [18] > 100 µM | [19] > 100 µM | [20] > 100 µM | [21] > 100 µM | [22] 16.2 µM | [23] > 100 µM | [24] > 100 µM | [25] > 100 µM | [26] > 100 µM | [27] > 100 µM | [28] > 100 µM | [29] > 100 µM | [30] > 100 µM | [31] > 100 µM | [32] > 100 µM | [33] > 100 µM | [34] > 100 µM | [35] > 100 µM | [36] > 100 µM | [37] > 100 µM | [38] > 100 µM | [39] > 100 µM | [40] > 100 µM | [41] > 100 µM | [42] > 100 µM | [43] > 100 µM | [44] > 100 µM | [45] > 100 µM | [46] > 100 µM | [47] > 100 µM | [48] > 100 µM | [49] > 100 µM | [50] > 100 µM | [51] 33.3 µM | [52] > 100 µM | [53] 26.6 µM | [54] > 100 µM | [55] > 100 µM | [56] > 100 µM
